Reference: ChEMBL document CHEMBL1154294, “An approach to the site-selective diversification of apoptolidin A with peptide-based catalysts” (J Nat Prod, 2009)

Tests used:
[1] = Antiproliferative activity against rat 3Y1 cells after 3 days by tetrazolium based cell counting assay
[2] = Antiproliferative activity against Adenovirus type 12 E1A transformed rat 3Y1cells after 3 days by tetrazolium based cell counting assay; details: 72 h
[3] = molecular target: ATP synthase subunit beta, mitochondrial (Saccharomyces cerevisiae S288c, UniProt P00830); assay: Inhibition of yeast mitochondrial F0F1-ATPase
ATP synthase subunit beta, mitochondrial, sequence (P00830 whole entry): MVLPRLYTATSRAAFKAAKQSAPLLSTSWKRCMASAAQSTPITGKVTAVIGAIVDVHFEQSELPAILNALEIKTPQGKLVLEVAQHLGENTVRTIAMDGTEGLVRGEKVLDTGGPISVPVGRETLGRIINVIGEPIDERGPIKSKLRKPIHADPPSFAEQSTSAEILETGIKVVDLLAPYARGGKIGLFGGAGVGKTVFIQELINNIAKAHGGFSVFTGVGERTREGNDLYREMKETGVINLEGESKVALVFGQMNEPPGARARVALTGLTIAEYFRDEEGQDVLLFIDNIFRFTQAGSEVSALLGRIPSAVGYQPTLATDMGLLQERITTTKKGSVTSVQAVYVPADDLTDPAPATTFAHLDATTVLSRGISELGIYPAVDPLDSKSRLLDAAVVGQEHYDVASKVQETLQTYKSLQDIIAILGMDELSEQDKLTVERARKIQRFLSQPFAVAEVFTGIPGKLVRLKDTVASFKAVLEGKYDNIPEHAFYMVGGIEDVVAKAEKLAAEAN

NCI-H292 = assay: Cytotoxicity activity in human NCI-H292 cells after 48 hrs by thiazolyl blue tetrazolium bromide assay; format: functional, cell-based; details: NCI-H292, 48 h

Compound	GI50 at 72 h [1] [nM]	GI50 [2] [nM]	IC50 [3] [nM]	EC50 (NCI-H292) [nM]
COC[C@@H](CC1O[C@@](O)([C@H](O)C2CC(=O)/C(C)=C/C(C)=C/C(C)=C/[C@@H](C)[C@H](O[C@@H]3O[C@@H](C)[C@H](OC)[C@@H](O)[C@@H]3OC(=O)c3ccccc3)/C=C/C(C)=C/CC[C@H](O)[C@@H](OC)C2)[C@H](C)[C@@H](O)[C@H]1C)O[C@H]1C[C@](C)(O)[C@@H](O[C@H]2C[C@@H](OC)[C@H](O)[C@@H](C)O2)[C@H](C)O1 (some centres not stated)	> 1000	3.6	300	
COC[C@@H](CC1O[C@@](O)([C@H](O)C2CC(=O)/C(C)=C/C(C)=C/C(C)=C/[C@@H](C)[C@H](O[C@@H]3O[C@@H](C)[C@H](OC)[C@@H](O)[C@@H]3O)/C=C/C(C)=C/CC[C@H](O)[C@@H](OC)C2)[C@H](C)[C@@H](OC(C)=O)[C@H]1C)O[C@H]1C[C@](C)(O)[C@@H](O[C@H]2C[C@@H](OC)[C@H](OC(C)=O)[C@@H](C)O2)[C@H](C)O1 (some centres not stated)	> 600	9.5	400	
COC[C@@H](CC1O[C@@](O)([C@H](O)C2CC(=O)/C(C)=C/C(C)=C/C(C)=C/[C@@H](C)[C@H](O[C@@H]3O[C@@H](C)[C@H](OC)[C@@H](O)[C@@H]3O)/C=C/C(C)=C/CC[C@H](O)[C@@H](OC)C2)[C@H](C)[C@@H](O)[C@H]1C)O[C@H]1C[C@](C)(O)[C@@H](O[C@H]2C[C@@H](OC)[C@H](OC(C)=O)[C@@H](C)O2)[C@H](C)O1 (some centres not stated)	> 1000	9.8	800	
COC[C@@H](CC1O[C@@](O)([C@H](O)C2CC(=O)/C(C)=C/C(C)=C/C(C)=C/[C@@H](C)[C@H](O[C@@H]3O[C@@H](C)[C@H](OC)[C@@H](O)[C@@H]3OC(C)=O)/C=C/C(C)=C/CC[C@H](O)[C@@H](OC)C2)[C@H](C)[C@@H](O)[C@H]1C)O[C@H]1C[C@](C)(O)[C@@H](O[C@H]2C[C@@H](OC)[C@H](O)[C@@H](C)O2)[C@H](C)O1 (some centres not stated)				60
COC[C@@H](CC1O[C@@](O)([C@H](OC(C)=O)C2CC(=O)/C(C)=C/C(C)=C/C(C)=C/[C@@H](C)[C@H](O[C@@H]3O[C@@H](C)[C@H](OC)[C@@H](O)[C@@H]3OC(C)=O)/C=C/C(C)=C/CC[C@H](O)[C@@H](OC)C2)[C@H](C)[C@@H](O)[C@H]1C)O[C@H]1C[C@](C)(O)[C@@H](O[C@H]2C[C@@H](OC)[C@H](OC(C)=O)[C@@H](C)O2)[C@H](C)O1 (some centres not stated)				48
COC[C@@H](CC1O[C@@](O)([C@H](O)C2CC(=O)/C(C)=C/C(C)=C/C(C)=C/[C@@H](C)[C@H](O[C@@H]3O[C@@H](C)[C@H](OC)[C@@H](OC(C)=O)[C@@H]3O)/C=C/C(C)=C/CC[C@H](O)[C@@H](OC)C2)[C@H](C)[C@@H](O)[C@H]1C)O[C@H]1C[C@](C)(O)[C@@H](O[C@H]2C[C@@H](OC)[C@H](O)[C@@H](C)O2)[C@H](C)O1 (some centres not stated)	> 1000	2.7	400	
COC[C@@H](CC1O[C@@](O)([C@H](OC(C)=O)C2CC(=O)/C(C)=C/C(C)=C/C(C)=C/[C@@H](C)[C@H](O[C@@H]3O[C@@H](C)[C@H](OC)[C@@H](OC(C)=O)[C@@H]3OC(C)=O)/C=C/C(C)=C/CC[C@H](O)[C@@H](OC)C2)[C@H](C)[C@@H](O)[C@H]1C)O[C@H]1C[C@](C)(O)[C@@H](O[C@H]2C[C@@H](OC)[C@H](O)[C@@H](C)O2)[C@H](C)O1 (some centres not stated)				48
COC[C@@H](CC1O[C@@](O)([C@H](OC(C)=O)C2CC(=O)/C(C)=C/C(C)=C/C(C)=C/[C@@H](C)[C@H](O[C@@H]3O[C@@H](C)[C@H](OC)[C@@H](O)[C@@H]3O)/C=C/C(C)=C/CC[C@H](O)[C@@H](OC)C2)[C@H](C)[C@@H](O)[C@H]1C)O[C@H]1C[C@](C)(O)[C@@H](O[C@H]2C[C@@H](OC)[C@H](O)[C@@H](C)O2)[C@H](C)O1 (some centres not stated)	> 1000	11	1100	
COC[C@@H](CC1O[C@@](O)([C@H](OC)C2CC(=O)/C(C)=C/C(C)=C/C(C)=C/[C@@H](C)[C@H](O[C@@H]3O[C@@H](C)[C@H](OC)[C@@H](O)[C@@H]3O)/C=C/C(C)=C/CC[C@H](O)[C@@H](OC)C2)[C@H](C)[C@@H](O)[C@H]1C)O[C@H]1C[C@](C)(O)[C@@H](O[C@H]2C[C@@H](OC)[C@H](O)[C@@H](C)O2)[C@H](C)O1 (some centres not stated)	> 1000	12	2800	
COC[C@@H](CC1O[C@@](O)([C@H](O)C2CC(=O)/C(C)=C/C(C)=C/C(C)=C/[C@@H](C)[C@H](O[C@@H]3O[C@@H](C)[C@H](OC)[C@@H](O)[C@@H]3O)/C=C/C(C)=C/CC[C@H](OC(C)=O)[C@@H](OC)C2)[C@H](C)[C@@H](O)[C@H]1C)O[C@H]1C[C@](C)(O)[C@@H](O[C@H]2C[C@@H](OC)[C@H](O)[C@@H](C)O2)[C@H](C)O1 (some centres not stated)	> 1000	56	800	
COC[C@@H](CC1O[C@@](O)([C@@H]2OC(=O)/C(C)=C/C(C)=C/C(C)=C/[C@@H](C)[C@H](O[C@@H]3O[C@@H](C)[C@H](OC)[C@@H](O)[C@@H]3O)/C=C/C(C)=C/CC[C@H](O)[C@@H](OC)C[C@@H]2O)[C@H](C)[C@@H](O)[C@H]1C)O[C@H]1C[C@](C)(O)[C@@H](O[C@H]2C[C@@H](OC)[C@H](O)[C@@H](C)O2)[C@H](C)O1 (some centres not stated) [ISOAPOPTOLIDIN]	> 1000	9	17000	
